In patent US8354447B2, “mGLU receptors antagonists for treating disorders associated with mGLU receptors including addiction and depression” (The Scripps Research Institute, priority 2002, dated 2013):
Structures can show the parent of a compound that is named as a salt. Where two headings read alike, the source gives them in different places.

Key:
male Wistar rats [1] = tested on: male Wistar rats
Source text: Animals were trained to respond according to a modification of the discrete-trial current-threshold procedure of Kornetsky and Esposito (Fed Proc 38:2473-2476, 1979), which has been described in detail previously (Markou and Koob, 1992 Physiol Behav 51:111-119). Briefly, a trial was initiated by the delivery of a non-contingent electrical stimulus. […] The current intensity delivered was adjusted for each animal and typically ranged from 50 to 200 μA. […] After a variable inter-trial interval (7.5-12.5 sec, average of 10 sec), another trial was initiated with the delivery of a non-contingent electrical stimulus. […] Responding during the inter-trial interval delayed the onset of the next trial by 12.5 sec. Current levels were varied in alternating descending and ascending series. A set of three trials was presented for each current intensity. Current intensities were altered in 5 μA steps. In each testing session, four alternating descending-ascending series were presented. […] The overall threshold of the session was defined as the mean of the thresholds for the four individual series. Each testing session was ˜30 min in duration. The latency between the onset of the non-contingent stimulus and a positive response was recorded as the response latency. The response latency for each test session was defined as the mean response latency of all trials during which a positive response occurred. After establishment of stable ICSS reward thresholds, rats were tested in the ICSS procedure once daily except for the spontaneous nicotine withdrawal experiment when rats were tested at time-points according to the experimental design.
Systemic administration experiments. These experiments investigated whether nicotine withdrawal, as measured by elevations in ICSS thresholds, could be precipitated in nicotine-treated rats by systemic administration of an agonist at mGluII receptors (LY314582), an agonist at GABAB receptors (CGP44532), or antagonists at mGlu5 (MPEP), NMDA (MK-801) or AMPA/Kainate (NBQX) glutamate receptors. For each drug tested, rats were trained in the ICSS paradigm until stable baseline responding was achieved, defined as ≦10% variation in thresholds for 3 consecutive days and requiring approximately 14 days of daily testing. […] One group was then prepared with subcutaneous osmotic mini-pumps delivering vehicle and the second group with mini-pumps delivering 9 mg/kg/day nicotine hydrogen tartrate (3.16 mg/kg/day nicotine free base). There was a minimum seven-day interval after mini-pump implantation, during which ICSS reward thresholds continued to be measured daily, before the effect of any systemically administered drug on reward thresholds was evaluated.

drug-naïve rats = settings: previous studies (Harrison et al., 2002; Macey et al., 2001); cited from earlier work
male Wistar rats [2] = experiment: Reward deficits during amphetamine withdrawal (ICSS thresholds, response latencies, body weight)
Experimental: Male Wistar rats (Charles River, Hollister, Calif.) (300-320 g at the start of the experiments) were housed in pairs in a temperature and humidity controlled environment with a 12 hr light/dark cycle. Food and water were available ad libitum. A different set of subjects was used for each experiment. All subjects were treated in accordance with the National Institutes of Health “Guide for the Care and Use of Laboratory Animals,” and the animal facilities and the experimental protocols were in accordance with the Association for the Assessment and Accreditation of Laboratory Animal Care. Most of the behavioral testing was conducted during the light phase of the subjects' light/dark cycle, unless otherwise dictated by the experimental design due to time-course assessment of behavioral parameters. Apparatus The experimental apparatus consisted of 16 Plexiglas chambers (30.5×30×17 cm) (Med Associates Inc., St. Albans, Vt.) encased in sound-attenuating boxes (San Diego Instruments, San Diego, Calif.). Each operant chamber consisted of a stainless steel grid floor and a metal wheel manipulandum located on one wall, which required a 0.2 N force to rotate it a quarter turn. Gold-contact swivel commutators and bipolar leads connected the animals in the stimulation circuit (Plastics One, Roanoke, Va.). Brain stimulation was administered by constant current stimulators (Stimtek 1200, San Diego Instruments, San Diego, Calif.). Surgical Procedure The rats were prepared with 11 mm stainless steel bipolar electrodes (Plastics One; diameter=0.25 mm) in the posterior lateral hypothalamus (AP −0.5 mm from bregma; L±1.7 mm; DV −8.3 mm from dura, with the incisor bar set at 5 mm above the interaural line; Pellegrino et al. 1979 under halothane anaesthesia (1-1.5% halothane/oxygen mixture). Subjects were allowed to recover for at least seven days before any behavioral testing. Half of the electrodes were positioned on the right hemisphere and the other half on the left hemisphere to counterbalance possible brain asymmetries. […] The subjects were initially trained to turn the wheel manipulandum on a fixed ratio 1 schedule of reinforcement. […] The current intensity delivered was adjusted for each animal and typically ranged from 100 to 200 μA. After successful familiarization with this procedure (2 sessions of 100 reinforcers in less than 20 minutes), the rats were gradually trained on a discrete-trial, current-threshold procedure. At the start of each trial rats received a non-contingent electrical stimulus. During the following 7.5 sec, the limited hold, if the subjects responded by turning the wheel manipulandum a quarter turn (positive response) they received a second, contingent stimulus identical to the previous non-contingent stimulus. During a 2 sec period immediately following a positive response, further responses were recorded as extra responses but had no consequence. If no response occurred during the 7.5 sec limited hold period a negative response was recorded. […] Stimulation intensities were varied according to the classical psychophysical method of limits. The subjects received four alternating series of ascending and descending current intensities starting with a descending series. Within each series the stimulus intensity was altered by 5 μA steps between each set of trials (three trials per set). After training in the above procedure, rats were tested until stable baseline thresholds had been achieved L+10% over a 5-day period). […] During the ascending series, the reverse situation defined the threshold. Thus, during each session, four current-thresholds were recorded and the mean of these values was taken as the current-threshold for each subject for each test session. Response Latency: The latency between the onset of the non-contingent stimulus and a positive response was recorded as the response latency. The response latency for each test session was defined as the mean response latency of all trials during which a positive response occurred. […]

Wistar rats = experiment: Cocaine-induced lowering of ICSS thresholds; format: in vivo, rat
[3] = CGP44532 0.065 mg/kg i.p., Nicotine-treated rats
[4] = CGP44532 0.065 mg/kg i.p., Vehicle-treated rats
[5] = CGP44532 0.125 mg/kg i.p., Nicotine-treated rats
[6] = CGP44532 0.125 mg/kg i.p., Vehicle-treated rats
[7] = CGP44532 0.25 mg/kg i.p., Nicotine-treated rats
[8] = CGP44532 0.25 mg/kg i.p., Vehicle-treated rats
[9] = CGP44532 0.5 mg/kg i.p., Nicotine-treated rats
[10] = CGP44532 0.5 mg/kg i.p., Vehicle-treated rats
[11] = MK-801 0.01 mg/kg i.p., Nicotine-treated rats
[12] = MK-801 0.01 mg/kg i.p., Vehicle-treated rats
[13] = MK-801 0.03 mg/kg i.p., Nicotine-treated rats
[14] = MK-801 0.03 mg/kg i.p., Vehicle-treated rats
[15] = MK-801 0.1 mg/kg i.p., Nicotine-treated rats
[16] = MK-801 0.1 mg/kg i.p., Vehicle-treated rats
[17] = MK-801 0.15 mg/kg i.p., Nicotine-treated rats
[18] = MK-801 0.15 mg/kg i.p., Vehicle-treated rats
[19] = MK-801 0.175 mg/kg i.p., Nicotine-treated rats
[20] = MK-801 0.175 mg/kg i.p., Vehicle-treated rats
[21] = MK-801 0.2 mg/kg i.p., Nicotine-treated rats
[22] = MK-801 0.2 mg/kg i.p., Vehicle-treated rats
[23] = chronic amphetamine administration

CP(=O)(O)C[C@@H](O)CN [CGP44532, 3-Amino-2-(S)-hydroxypropyl-methyl-phosphinic acid]
ICSS Thresholds (male Wistar rats [1]; [3]): 96.37 ± 3.2 percentage of baseline
ICSS response Latencies (male Wistar rats [1]; [3]): 106.02 ± 8.1 percentage of baseline
ICSS Thresholds (male Wistar rats [1]; [4]): 96.28 ± 3.1 percentage of baseline
ICSS response Latencies (male Wistar rats [1]; [4]): 97.31 ± 3.8 percentage of baseline
ICSS Thresholds (male Wistar rats [1]; [5]): 103.88 ± 7.2 percentage of baseline
ICSS response Latencies (male Wistar rats [1]; [5]): 98.15 ± 5.3 percentage of baseline
ICSS Thresholds (male Wistar rats [1]; [6]): 106.76 ± 3.2 percentage of baseline
ICSS response Latencies (male Wistar rats [1]; [6]): 102.34 ± 2.8 percentage of baseline
ICSS Thresholds (male Wistar rats [1]; [7]): 109.98 ± 5.4 percentage of baseline
ICSS response Latencies (male Wistar rats [1]; [7]): 99.05 ± 3.1 percentage of baseline
ICSS Thresholds (male Wistar rats [1]; [8]): 109.14 ± 5.1 percentage of baseline
ICSS response Latencies (male Wistar rats [1]; [8]): 105.03 ± 3.1 percentage of baseline
ICSS Thresholds (male Wistar rats [1]; [9]): 146.83 ± 14.3 percentage of baseline
ICSS response Latencies (male Wistar rats [1]; [9]): 98.11 ± 5.4 percentage of baseline
ICSS Thresholds (male Wistar rats [1]; [10]): 148.43 ± 16.6 percentage of baseline
ICSS response Latencies (male Wistar rats [1]; [10]): 106.13 ± 6.5 percentage of baseline
ICSS reward thresholds (male Wistar rats [1]; CGP44532 0.5 mg/kg, p<0.001): elevated reward thresholds in nicotine-treated and control rats
ICSS reward thresholds (male Wistar rats [1]; CGP44532 0.065-0.25 mg/kg, nicotine treated rats): did not precipitate reward threshold elevations in nicotine treated rats at the lowest doses tested
ICSS response Latencies (male Wistar rats [1]; CGP44532 0.065-0.5 mg/kg): had no effect on response latencies at any dose tested
dose that elevated ICSS thresholds in drug-naïve rats (drug-naïve rats): ≥ 0.25 mg/kg

C[C@]12N[C@H](Cc3ccccc31)c1ccccc12 [MK-801, (5R,10S)-(+)-5-Methyl-10,11-dihydro-5H-dibenzo(a,d)cyclohepten-5,10-imine hydrogen maleate]
ICSS Thresholds (male Wistar rats [1]; [11]): 98.20 ± 6.1 percentage of baseline
ICSS response Latencies (male Wistar rats [1]; [11]): 95.41 ± 2.3 percentage of baseline
ICSS Thresholds (male Wistar rats [1]; [12]): 95.99 ± 3.3 percentage of baseline
ICSS response Latencies (male Wistar rats [1]; [12]): 100.00 ± 2.5 percentage of baseline
ICSS Thresholds (male Wistar rats [1]; [13]): 93.09 ± 3.9 percentage of baseline
ICSS response Latencies (male Wistar rats [1]; [13]): 94.64 ± 3.6 percentage of baseline
ICSS Thresholds (male Wistar rats [1]; [14]): 92.54 ± 2.6 percentage of baseline
ICSS response Latencies (male Wistar rats [1]; [14]): 103.14 ± 2.1 percentage of baseline
ICSS Thresholds (male Wistar rats [1]; [15]): 89.42 ± 3.6 percentage of baseline
ICSS response Latencies (male Wistar rats [1]; [15]): 106.14 ± 4.4 percentage of baseline
ICSS Thresholds (male Wistar rats [1]; [16]): 88.48 ± 5.6 percentage of baseline
ICSS response Latencies (male Wistar rats [1]; [16]): 98.97 ± 3.9 percentage of baseline
ICSS Thresholds (male Wistar rats [1]; [17]): 76.24 ± 4.7 percentage of baseline
ICSS response Latencies (male Wistar rats [1]; [17]): 93.65 ± 3.6 percentage of baseline
ICSS Thresholds (male Wistar rats [1]; [18]): 87.14 ± 4.6 percentage of baseline
ICSS response Latencies (male Wistar rats [1]; [18]): 101.60 ± 2.0 percentage of baseline
ICSS Thresholds (male Wistar rats [1]; [19]): 82.26 ± 3.7 percentage of baseline
ICSS response Latencies (male Wistar rats [1]; [19]): 93.56 ± 4.2 percentage of baseline
ICSS Thresholds (male Wistar rats [1]; [20]): 93.64 ± 3.4 percentage of baseline
ICSS response Latencies (male Wistar rats [1]; [20]): 119.22 ± 11.9 percentage of baseline
ICSS Thresholds (male Wistar rats [1]; [21]): 84.29 ± 3.0 percentage of baseline
ICSS response Latencies (male Wistar rats [1]; [21]): 105.14 ± 1.9 percentage of baseline
ICSS Thresholds (male Wistar rats [1]; [22]): 82.47 ± 4.3 percentage of baseline
ICSS response Latencies (male Wistar rats [1]; [22]): 119.21 ± 9.4 percentage of baseline
ICSS reward thresholds (male Wistar rats [1]; MK-801 0.01-0.2 mg/kg): lowered reward thresholds in nicotine-treated and control rats
withdrawal-like elevations in reward thresholds (male Wistar rats [1]; MK-801, nicotine-treated rats): did not precipitate withdrawal-like elevations in reward thresholds in nicotine-treated rats at any dose tested
ICSS response Latencies (male Wistar rats [1]; MK-801, p<0.05, particularly in control rats): did significantly increase response latencies
Doses causing disruption in performance in the ICSS paradigm (male Wistar rats [1]; both groups, rats no longer responded for self-stimulation): ≥ 0.2 mg/kg

NS(=O)(=O)c1cccc2c1c([N+](=O)[O-])cc1[nH]c(=O)c(=O)[nH]c12.[Na].[Na] [NBQX, 2,3-dioxo-6-nitro-1,2,3,4-tetrahydrobenzo(f)quinoxaline-7-sulphonamide disodium]
ICSS response Latencies (male Wistar rats [1]; NBQX 0.01-1 mg/kg): had no effect on response latencies in nicotine-treated or control rats at any dose tested
ICSS reward thresholds (male Wistar rats [1]; NBQX 0.01-1 mg/kg): significantly altered ICSS reward thresholds in nicotine-treated but not control rats
ICSS reward thresholds (male Wistar rats [1]; NBQX 0.025-0.1 mg/kg, nicotine-treated rats): elevated reward thresholds in nicotine-treated rats
ICSS reward thresholds (male Wistar rats [1]; NBQX 0.5-1 mg/kg, nicotine-treated rats): did not significantly increase thresholds compared to vehicle treatment

C[C@H](N)Cc1ccccc1 [amphetamine, d-Amphetamine sulfate]
reward thresholds during amphetamine withdrawal (male Wistar rats [2]; amphetamine-exposed rats treated with vehicle): exhibited elevated thresholds at withdrawal hours 12, 36, 42, 60 and 84
body weight (male Wistar rats [2]; [23]): significantly reduced the body weight of animals
response latencies (male Wistar rats [2]; [23]): did not significantly differ from those of the saline-exposed rats at any stage during chronic drug treatment
reward thresholds (male Wistar rats [2]; chronic amphetamine administration, four day treatment, 1-5 mg/kg three times a day): significantly elevated thresholds

COC(=O)[C@H]1[C@@H](OC(=O)c2ccccc2)C[C@@H]2CC[C@H]1N2C.Cl [cocaine, Cocaine hydrochloride]
ICSS response Latencies (Wistar rats; cocaine 10 mg/kg): significantly decreased ICSS response latencies
ICSS Thresholds (Wistar rats; cocaine 10 mg/kg i.p.): significantly lowered ICSS thresholds
ICSS thresholds, time course (Wistar rats; cocaine 10 mg/kg, at 10 and 40 min after cocaine injection): significantly lowered in cocaine-treated rats, pretreated with vehicle
